Earlier results in patent publication US20200188405A1, “COMPOSITION FOR TREATING OCULAR DISORDERS SUCH AS MACULAR DEGENERATION, RETINOPATHY AND GLAUCOMA” (RHEOSTASIS, LLC, priority 2017, published 2020).
Where a name gives a salt, the structure may show the parent alone.

Test system: β (beta) blocker
Conditions: ocular applications

CC(C)(C)NC[C@H](O)COc1nsnc1N1CCOCC1 [Timolol Maleate]
potency as β blocker relative to propranolol: 5-10 times
